Data taken from publication PMC9138505, “Small Molecule 20S Proteasome Enhancer Regulates MYC Protein Stability and Exhibits Antitumor Activity in Multiple Myeloma” (Biomedicines, 2022).
Values joined by “and” are separate entries in the source; they are usually repeats but may differ in a detail not shown here. Identical values can stand only once.

Tested on: RPMI-8226 cells
Experiment: Gene expression profiling, NanoString nCounter PanCancer Pathways Panel, ROSALIND analysis
Assay type: cell-based, human
Settings: RPMI-8226, TCH-165 samples 1-3
Method: RPMI-8226 cells were treated with vehicle or TCH-165 (10 μM) for 4 h. Total RNA was obtained using the mirVana miRNA Isolation Kit, with phenol (Thermofisher Scientific; AM1560; Waltham, MA, USA). Total RNA was quantified by Qubit (Thermofisher Scientific; Q32855; Waltham, MA, USA). and gene expression was evaluated against the nCounter® PanCancer Pathways Panel^TM according to the standard NanoString protocol.
Data were analyzed by ROSALIND® [36] with a hyperscale architecture developed by ROSALIND, Inc. (San Diego, CA, USA). Normalization, fold changes and p-values were calculated using criteria provided by NanoString. ROSALIND follows the nCounter® Advanced Analysis protocol of dividing counts within a lane by the geometric mean of the normalizer probes from the same lane. Housekeeping probes to be used for normalization are selected based on the geNorm algorithm, as implemented in the NormqPCR R library. Fold changes and p-values are calculated using the fast method as described in the nCounter Advanced Analysis 2.0 User Manual. The p-value adjustment is performed using the Benjamini–Hochberg method of estimating false discovery rates (FDR). Clustering of genes for the final heatmap of differentially expressed genes was done using the PAM (Partitioning Around Medoids) method using the fpc R library. Hypergeometric distribution was used to analyze the enrichment of pathways, gene ontology, domain structure and other ontologies. The topGO R library was used to determine local similarities and dependencies between GO terms in order to perform Elim pruning correction. Several database sources were referenced for enrichment analysis, including Interpro [40], NCBI [41], MSigDB [42, 43], REACTOME [44], WikiPathways. Enrichment was calculated relative to a set of background genes relevant to the experiment.

CCOC(=O)[C@]1(c2ccccc2)N=C(c2ccc(OC)cc2)N(Cc2ccccc2)[C@@H]1c1ccc(NCc2ccccc2)cc1 [TCH-165]
FGF2 normalized gene expression: 5.208 and 4.324 and 4.613
FGF3 normalized gene expression: 4.401 and 4.524 and 4.693
FGF4 normalized gene expression: 5.044 and 4.927 and 4.613
FGF5 normalized gene expression: 2.723 and 2.569 and 3.0682
FGF6 normalized gene expression: 3.86 and 3.891 and 3.184
FGF7 normalized gene expression: 4.86 and 4.996 and 4.653
FGF8 normalized gene expression: 4.723 and 3.569 and 3.805
FGF9 normalized gene expression: 7.044 and 7.045 and 7.083
FGF10 normalized gene expression: 5.308 and 4.614 and 4.975
FGF11 normalized gene expression: 5.53 and 5.154 and 4.975
FGF12 normalized gene expression: 3.86 and 4.7789 and 4.769
FGF13 normalized gene expression: 8.993 and 9.004 and 8.947
FGF14 normalized gene expression: 4.86 and 4.891 and 4.769
FGF16 normalized gene expression: 4.793 and 4.996 and 4.731
FGF17 normalized gene expression: 2.723 and 3.154 and 3.653
FGF18 normalized gene expression: 4.101 and 2.3768 and 3.39
FGF19 normalized gene expression: 3.86 and 4.029 and 4.1271
FGF20 normalized gene expression: 4.571 and 4.817 and 4.876
FGF21 normalized gene expression: 5.955 and 5.636 and 5.712
FGF22 normalized gene expression: 5.827 and 5.569 and 5.098
FGF23 normalized gene expression: 5.208 and 5.124 and 5.341
FGFR1 normalized gene expression: 4.488 and 4.324 and 4.528
FGFR2 normalized gene expression: 6.015 and 5.836 and 5.461
FGFR3 normalized gene expression: 5.488 and 4.614 and 4.9095
FGFR4 normalized gene expression: 4.401 and 3.891 and 4.1271
FIGF normalized gene expression: 4.101 and 3.817 and 2.943
FLNA normalized gene expression: 9.475 and 9.497 and 9.54
FLNC normalized gene expression: 5.924 and 5.979 and 5.528
FLT1 normalized gene expression: 3.401 and 4.029 and 3.653
FLT3 normalized gene expression: 3.401 and 2.739 and 3.0682
FN1 normalized gene expression: 13.4955 and 13.457 and 13.4134
FOS normalized gene expression: 7.234 and 7.603 and 7.613
FOSL1 normalized gene expression: 5.892 and 5.759 and 5.712
FOXL2 normalized gene expression: 4.924 and 4.569 and 4.528
FOXO4 normalized gene expression: 6.986 and 7.124 and 6.787
FST normalized gene expression: 5.308 and 5.093 and 5.184
FUBP1 normalized gene expression: 10.9203 and 10.8641 and 10.8501
FUT8 normalized gene expression: 8.45 and 8.328 and 8.338
FZD2 normalized gene expression: 4.571 and 4.817 and 5.211
FZD3 normalized gene expression: 7.195 and 7.427 and 7.378
FZD7 normalized gene expression: 4.986 and 4.7789 and 4.805
FZD8 normalized gene expression: 4.401 and 3.569 and 4.1271
FZD9 normalized gene expression: 5.208 and 4.029 and 4.341
FZD10 normalized gene expression: 4.86 and 3.962 and 4.437
GADD45A normalized gene expression: 9.132 and 9.301 and 9.248
GADD45B normalized gene expression: 7.884 and 7.9093 and 7.914
GADD45G normalized gene expression: 4.101 and 4.569 and 4.693
GAS1 normalized gene expression: 5.259 and 4.029 and 4.653
GATA1 normalized gene expression: 5.156 and 4.476 and 4.437
GATA2 normalized gene expression: 4.924 and 4.476 and 4.0068
GATA3 normalized gene expression: 2.986 and 4.029 and 4.1271
GHR normalized gene expression: 4.208 and 4.657 and 4.876
GLI1 normalized gene expression: 4.793 and 4.996 and 5.1271
GLI3 normalized gene expression: 7.234 and 6.709 and 6.884
GNA11 normalized gene expression: 6.86 and 6.739 and 6.602
GNAQ normalized gene expression: 4.86 and 5.324 and 4.653
GNAS normalized gene expression: 10.7886 and 10.9336 and 10.8358
GNG4 normalized gene expression: 4.208 and 4.569 and 4.9095
GNG7 normalized gene expression: 5.488 and 5.452 and 4.975
GNGT1 normalized gene expression: 4.86 and 4.699 and 4.341
GPC4 normalized gene expression: 4.986 and 4.324 and 4.238
GRB2 normalized gene expression: 11.2288 and 11.2361 and 11.1936
GRIA3 normalized gene expression: 5.101 and 4.029 and 4.39
GRIN1 normalized gene expression: 6.182 and 5.836 and 5.975
GRIN2A normalized gene expression: 5.955 and 5.678 and 5.437
GRIN2B normalized gene expression: 3.401 and 3.476 and 2.943
GSK3B normalized gene expression: 8.384 and 8.242 and 8.36
GTF2H3 normalized gene expression: 9.358 and 9.284 and 9.271
GZMB normalized gene expression: 4.649 and 4.029 and 4.5707
H2AFX normalized gene expression: 9.249 and 8.96 and 9.049
H3F3A normalized gene expression: 13.5139 and 13.5375 and 13.5217
HDAC1 normalized gene expression: 9.665 and 9.611 and 9.679
HDAC2 normalized gene expression: 11.0236 and 10.9286 and 10.9442
HDAC4 normalized gene expression: 6.986 and 6.798 and 6.778
HDAC5 normalized gene expression: 8.03 and 8.069 and 8.049
HDAC6 normalized gene expression: 7.658 and 7.699 and 7.643
HELLS normalized gene expression: 9.578 and 9.451 and 9.503
HES1 normalized gene expression: 4.924 and 4.855 and 4.613
HGF normalized gene expression: 8.129 and 8.033 and 8.145
HHEX normalized gene expression: 5.986 and 6.012 and 5.943
HIST1H3B normalized gene expression: 15.271 and 14.9487 and 14.86
HIST1H3G normalized gene expression: 14.1552 and 13.7784 and 13.7341
HIST1H3H normalized gene expression: 15.3267 and 14.9451 and 14.9056
HMGA1 normalized gene expression: 10.7304 and 10.6516 and 10.6817
HMGA2 normalized gene expression: 4.86 and 4.657 and 4.0068
HNF1A normalized gene expression: 5.53 and 4.962 and 4.769
HOXA9 normalized gene expression: 5.355 and 5.242 and 5.291
HOXA10 normalized gene expression: 5.61 and 5.592 and 5.437
HOXA11 normalized gene expression: 4.986 and 5.093 and 5.414
HPGD normalized gene expression: 4.208 and 4.3768 and 5.0068
HRAS normalized gene expression: 7.087 and 7.184 and 7.0682
HSP90B1 normalized gene expression: 11.9809 and 12.0196 and 12.0083
HSPA1A normalized gene expression: 6.793 and 6.667 and 6.528
HSPA2 normalized gene expression: 5.259 and 4.962 and 5.39
HSPA6 normalized gene expression: 8.169 and 8.132 and 8.184
HSPB1 normalized gene expression: 10.6744 and 10.4282 and 10.4272
IBSP normalized gene expression: 4.101 and 4.427 and 3.5707
ID1 normalized gene expression: 7.234 and 7.077 and 7.39
ID2 normalized gene expression: 8.252 and 8.085 and 8.156
ID4 normalized gene expression: 5.308 and 4.962 and 4.5707
IDH1 normalized gene expression: 8.037 and 7.944 and 8.087
IDH2 normalized gene expression: 10.7214 and 10.6097 and 10.5399
IFNA2 normalized gene expression: 4.793 and 5.029 and 4.876
IFNA7 normalized gene expression: 4.208 and 3.891 and 3.653
IFNA17 normalized gene expression: 5.445 and 5.817 and 5.712
IFNG normalized gene expression: 4.723 and 3.739 and 3.731
IGF1R normalized gene expression: 9.24 and 9.089 and 9.141
IGF1 normalized gene expression: 5.686 and 5.427 and 5.0682
IGFBP3 normalized gene expression: 11.5972 and 11.5942 and 11.578
IKBKB normalized gene expression: 7.271 and 7.249 and 6.85
IKBKG normalized gene expression: 8.189 and 8.037 and 8.156
IL1A normalized gene expression: 4.208 and 4.154 and 4.0682
IL1B normalized gene expression: 5.044 and 4.427 and 4.805
IL1R1 normalized gene expression: 4.723 and 4.27 and 4.1271
IL1RAP normalized gene expression: 6.044 and 5.927 and 6.0682
IL2RA normalized gene expression: 4.571 and 4.27 and 4.291
IL2RB normalized gene expression: 4.101 and 3.891 and 4.437
IL3RA normalized gene expression: 6.378 and 6.614 and 6.197
IL3 normalized gene expression: 5.61 and 4.996 and 5.211
IL5RA normalized gene expression: 6.182 and 6.2133 and 6.211
IL6R normalized gene expression: 6.156 and 6.045 and 5.926
IL6 normalized gene expression: 4.308 and 3.476 and 3.0682
IL7R normalized gene expression: 4.571 and 4.569 and 4.528
IL7 normalized gene expression: 4.101 and 4.739 and 4.805
IL10 normalized gene expression: 5.892 and 6.27 and 6.238
IL11RA normalized gene expression: 4.649 and 4.476 and 3.291
IL11 normalized gene expression: 4.208 and 4.324 and 4.341
IL12A normalized gene expression: 2.986 and 2.739 and 2.943
IL12B normalized gene expression: 4.86 and 4.657 and 4.613
IL12RB2 normalized gene expression: 4.401 and 3.476 and 3.39
IL13RA2 normalized gene expression: 3.86 and 3.962 and 3.39
IL13 normalized gene expression: 3.986 and 4.699 and 4.653
IL15 normalized gene expression: 3.986 and 3.962 and 4.0682
IL19 normalized gene expression: 5.044 and 4.855 and 5.0068
IL20RA normalized gene expression: 4.101 and 3.739 and 4.0682
IL20RB normalized gene expression: 5.892 and 5.836 and 5.613
IL23A normalized gene expression: 6.355 and 5.979 and 6.038
IL24 normalized gene expression: 4.208 and 5.427 and 4.876
INHBA normalized gene expression: 4.793 and 4.569 and 4.0682
INHBB normalized gene expression: 5.53 and 5.927 and 5.75
IRAK2 normalized gene expression: 5.892 and 5.524 and 5.893
IRAK3 normalized gene expression: 5.156 and 5.029 and 4.805
IRS1 normalized gene expression: 5.308 and 4.996 and 4.805
ITGA2 normalized gene expression: 3.723 and 3.657 and 3.731
ITGA3 normalized gene expression: 7.115 and 6.979 and 6.693
ITGA6 normalized gene expression: 5.259 and 5.242 and 4.653
ITGA7 normalized gene expression: 4.208 and 4.154 and 4.943
ITGA8 normalized gene expression: 5.488 and 4.891 and 5.098
ITGA9 normalized gene expression: 4.86 and 4.996 and 4.437
ITGB3 normalized gene expression: 3.401 and 2.739 and 3.731
ITGB4 normalized gene expression: 5.308 and 5.184 and 5.0682
ITGB6 normalized gene expression: 5.571 and 5.2133 and 5.291
ITGB7 normalized gene expression: 14.1153 and 14.105 and 14.0545
ITGB8 normalized gene expression: 6.445 and 6.452 and 6.602
JAG1 normalized gene expression: 8.08 and 7.864 and 7.85
JAG2 normalized gene expression: 7.169 and 7.476 and 7.455
JAK1 normalized gene expression: 9.467 and 9.41 and 9.414
JAK2 normalized gene expression: 6.331 and 6.311 and 6.4021
JUN normalized gene expression: 8.667 and 8.646 and 8.78
KAT2B normalized gene expression: 7.955 and 8.18 and 8.102
KDM5C normalized gene expression: 9.094 and 8.985 and 8.924
KDM6A normalized gene expression: 4.401 and 4.029 and 3.943
KIT normalized gene expression: 5.101 and 4.739 and 4.528
KITLG normalized gene expression: 4.649 and 4.739 and 4.5707
KLF4 normalized gene expression: 4.308 and 4.996 and 4.769
KMT2D normalized gene expression: 8.115 and 8.314 and 8.228
KRAS normalized gene expression: 11.0766 and 10.9767 and 10.9365
LAMA3 normalized gene expression: 5.308 and 5.324 and 5.1271
LAMA5 normalized gene expression: 5.986 and 5.739 and 5.693
LAMB3 normalized gene expression: 6.234 and 6.169 and 6.1271
LAMB4 normalized gene expression: 4.401 and 4.029 and 3.731
LAMC2 normalized gene expression: 3.723 and 3.27 and 3.731
LAMC3 normalized gene expression: 5.649 and 4.996 and 4.693
LAT normalized gene expression: 5.723 and 5.927 and 5.366
LEF1 normalized gene expression: 3.86 and 2.891 and 2.291
LEFTY1 normalized gene expression: 5.723 and 4.855 and 5.0068
LEFTY2 normalized gene expression: 6.571 and 6.657 and 6.814
LEP normalized gene expression: 5.259 and 4.855 and 4.291
LEPR normalized gene expression: 6.401 and 5.817 and 6.378
LFNG normalized gene expression: 5.758 and 5.2133 and 4.805
LIF normalized gene expression: 5.259 and 5.029 and 5.156
